Results taken from EP0908457B1, “3-(1,2-benzisothiazol- and isoxazol-5-Y1)-2,4(1H,3H)-pyrimidinedione or thione and 3-(1,2-benzisothiazol- and isoxazol-5-y1)-4(3H)-pyrimidinone or thione herbicidal agents” (BASF AKTIENGESELLSCHAFT, priority 1997, dated 1999).

Experiments:
[1] = test system: Echinochloa oryzoides (Ard.) Fritsch.; test: Preemergence weed control under flooded paddy conditions, ECHORC (Watergrass (Calif.)); format: in vivo; settings: preemergence, flooded paddy; for herbicidal effect rating, ECHORC: meaning of each grade not given here
[2] = test system: Cyperus iria; test: Preemergence weed control under flooded paddy conditions, CYPIR (Rice Flatsedge); format: in vivo; settings: preemergence, flooded paddy; for herbicidal effect rating, CYPIR: meaning of each grade not given here
[3] = test system: Cyperus serotinus, Rottb.; test: Preemergence weed control under flooded paddy conditions, CYPSE (Flatsedge); format: in vivo; settings: preemergence; for herbicidal effect rating, CYPSE: meaning of each grade not given here
[4] = test system: Monochoria vaginalis, Presl.; test: Preemergence weed control under flooded paddy conditions, MOOVA (Monochoria); format: in vivo; settings: preemergence, flooded paddy; for herbicidal effect rating, MOOVA: meaning of each grade not given here
[5] = test system: Sagittaria pygmaea, L.; test: Preemergence weed control under flooded paddy conditions, SAGPY (Arrowhead (Pygmaea)); format: in vivo; settings: preemergence, flooded paddy; for herbicidal effect rating, SAGPY: meaning of each grade not given here
[6] = test system: Oryza sativa, (L.) Tebonnet; test: Rice tolerance to post-transplant applications under flooded paddy conditions (Example 187), ORYSAT (Rice, Tebonnet); for herbicidal effect rating ORYSAT: meaning of each grade not given here
[7] = Rate 0.0320 kg/ha, rated 3-4 weeks after treatment
[8] = Rate 0.0620 kg/ha, rated 3-4 weeks after treatment
[9] = Rate 0.1250 kg/ha, rated 3-4 weeks after treatment
[10] = Rate 0.2500 kg/ha, rated 3-4 weeks after treatment
[11] = Rate 0.5000 kg/ha, rated 3-4 weeks after treatment
[12] = Rate 0.0320 kg/ha, rated three to four weeks after treatment
[13] = Rate 0.0620 kg/ha, rated three to four weeks after treatment
[14] = Rate 0.1250 kg/ha, rated three to four weeks after treatment
[15] = Rate 0.2500 kg/ha, rated three to four weeks after treatment

Structure (SMILES): Cc1ccc(OCC(=O)OCC(C)(C)Cc2ccccc2)c(-c2nsc3ccc(-n4c(=O)cc(C(F)(F)F)n(C)c4=O)cc23)c1 [Example 527, Acetic acid, {{2-{5-[3,6-dihydro-3-methyl-2,6-dioxo-4-(trifluoromethyl)-1(2H)-pyrimidinyl)-1,2-benzisothiazol-3-yl}-p-tolyl}oxy}-, 2,2-dimethyl-3-phenylpropyl ester]
- herbicidal effect rating, ECHORC [1, 7]: 3.0
- herbicidal effect rating, ECHORC [1, 8]: 8.0
- herbicidal effect rating, ECHORC [1, 9]: 9.0
- herbicidal effect rating, ECHORC [1, 10]: 9.0
- herbicidal effect rating, CYPIR [2, 7]: 2.0
- herbicidal effect rating, CYPIR [2, 8]: 2.0
- herbicidal effect rating, CYPIR [2, 9]: 4.0
- herbicidal effect rating, CYPIR [2, 10]: 4.0
- herbicidal effect rating, CYPSE [3, 7]: 0.0
- herbicidal effect rating, CYPSE [3, 8]: 0.0
- herbicidal effect rating, CYPSE [3, 9]: 0.0
- herbicidal effect rating, CYPSE [3, 10]: 0.0
- herbicidal effect rating, MOOVA [4, 7]: 9.0
- herbicidal effect rating, MOOVA [4, 8]: 9.0
- herbicidal effect rating, MOOVA [4, 9]: 9.0
- herbicidal effect rating, MOOVA [4, 10]: 9.0
- herbicidal effect rating, SAGPY [5, 7]: 0.0
- herbicidal effect rating, SAGPY [5, 8]: 0.0
- herbicidal effect rating, SAGPY [5, 9]: 0.0
- herbicidal effect rating, SAGPY [5, 10]: 0.0
- herbicidal effect rating ORYSAT [6, 7]: 2.0
- herbicidal effect rating ORYSAT [6, 8]: 2.5
- herbicidal effect rating ORYSAT [6, 9]: 2.5
- herbicidal effect rating ORYSAT [6, 10]: 4.0

Structure (SMILES): Cc1ccc(OCC(=O)c2ccc(Cl)cc2)c(-c2nsc3ccc(-n4c(=O)cc(C(F)(F)F)n(C)c4=O)cc23)c1 [Example 538, 2,4(1H,3H)-Pyrimidinedione, 3-{3-{6-[(p-chlorophenacyl)oxy]-m-tolyl}-1,2-benzisothiazol-5-yl}-1-methyl-6-(trifluoromethyl)-]
- herbicidal effect rating, ECHORC [1, 7]: 2.1
- herbicidal effect rating, ECHORC [1, 8]: 3.4
- herbicidal effect rating, ECHORC [1, 9]: 4.7
- herbicidal effect rating, ECHORC [1, 10]: 9.0
- herbicidal effect rating, ECHORC [1, 11]: 9.0
- herbicidal effect rating, CYPIR [2, 7]: 0.0
- herbicidal effect rating, CYPIR [2, 8]: 0.0
- herbicidal effect rating, CYPIR [2, 9]: 0.0
- herbicidal effect rating, CYPIR [2, 10]: 0.0
- herbicidal effect rating, CYPIR [2, 11]: 9.0
- herbicidal effect rating, CYPSE [3, 7]: 0.0
- herbicidal effect rating, CYPSE [3, 8]: 0.0
- herbicidal effect rating, CYPSE [3, 9]: 0.0
- herbicidal effect rating, CYPSE [3, 10]: 0.0
- herbicidal effect rating, CYPSE [3, 11]: 0.0
- herbicidal effect rating, MOOVA [4, 7]: 9.0
- herbicidal effect rating, MOOVA [4, 8]: 9.0
- herbicidal effect rating, MOOVA [4, 9]: 9.0
- herbicidal effect rating, MOOVA [4, 10]: 9.0
- herbicidal effect rating, MOOVA [4, 11]: 9.0
- herbicidal effect rating, SAGPY [5, 7]: 0.0
- herbicidal effect rating, SAGPY [5, 8]: 0.0
- herbicidal effect rating, SAGPY [5, 9]: 0.0
- herbicidal effect rating, SAGPY [5, 10]: 0.0
- herbicidal effect rating, SAGPY [5, 11]: 0.0
- herbicidal effect rating ORYSAT [6, 7]: 0.0
- herbicidal effect rating ORYSAT [6, 8]: 0.0
- herbicidal effect rating ORYSAT [6, 9]: 1.0
- herbicidal effect rating ORYSAT [6, 10]: 1.0
- herbicidal effect rating ORYSAT [6, 11]: 1.0

Structure (SMILES): Cn1c(C(F)(F)F)cc(=O)n(-c2ccc3snc(C(C#N)=Cc4cc5ccccc5[nH]4)c3c2)c1=O [Example 601, 1,2-Benzisothiazole-3-acetonitrile, 5-[3,6-dihydro-3-methyl-2,6-dioxo-4-(trifluoromethyl)-1(2H)-pyrimidinyl]-alpha-(indol-2-ylmethylene)-]
- herbicidal effect rating, ECHORC [1, 12]: 0.0
- herbicidal effect rating, ECHORC [1, 13]: 0.0
- herbicidal effect rating, ECHORC [1, 14]: 2.0
- herbicidal effect rating, ECHORC [1, 15]: 6.0
- herbicidal effect rating, CYPIR [2, 12]: 0.0
- herbicidal effect rating, CYPIR [2, 13]: 0.0
- herbicidal effect rating, CYPIR [2, 14]: 4.0
- herbicidal effect rating, CYPIR [2, 15]: 4.0
- herbicidal effect rating, CYPSE [3, 12]: 0.0
- herbicidal effect rating, CYPSE [3, 13]: 0.0
- herbicidal effect rating, CYPSE [3, 14]: 0.0
- herbicidal effect rating, CYPSE [3, 15]: 3.0
- herbicidal effect rating, MOOVA [4, 12]: 6.0
- herbicidal effect rating, MOOVA [4, 13]: 7.0
- herbicidal effect rating, MOOVA [4, 14]: 9.0
- herbicidal effect rating, MOOVA [4, 15]: 9.0
- herbicidal effect rating, SAGPY [5, 12]: 0.0
- herbicidal effect rating, SAGPY [5, 13]: 0.0
- herbicidal effect rating, SAGPY [5, 14]: 0.0
- herbicidal effect rating, SAGPY [5, 15]: 0.0
- herbicidal effect rating ORYSAT [6, 12]: 4.0
- herbicidal effect rating ORYSAT [6, 13]: 5.0
- herbicidal effect rating ORYSAT [6, 14]: 6.0
- herbicidal effect rating ORYSAT [6, 15]: 7.0

Structure (SMILES): Cn1c(C(F)(F)F)cc(=O)n(-c2ccc3snc(CCBr)c3c2)c1=O [Example 260, 2,4(1H,3H)-Pyrimidinedione, 3-[3-(2-bromoethyl)-1,2-benzisothiazol-5-yl]-1-methyl-6-(trifluoromethyl)-]
- ECHORC herbicidal effect rating [1, 15]: 0.0
- CYPIR herbicidal effect rating [2, 15]: 0.0
- CYPSE herbicidal effect rating [3, 15]: 0.0
- MOOVA herbicidal effect rating [4, 15]: 0.0
- SAGPY herbicidal effect rating [5, 15]: 0.0
- ORYSAT herbicidal effect rating [6, 15]: 0.0

Structure (SMILES): Cc1ccc(OCC(N)=O)c(-c2nsc3ccc(-n4c(=O)cc(C(F)(F)F)n(C)c4=O)cc23)c1 [Example 539, Acetamide, 2-{{2-{5-[3,6-dihydro-3-methyl-2,6-dioxo-4-(trifluoromethyl)-1(2H)-pyrimidinyl]-1,2-benzisothiazol-3-yl}-p-tolyl}oxy}-]
- herbicidal effect rating, ECHORC [1, 7]: 2.1
- herbicidal effect rating, ECHORC [1, 8]: 3.0
- herbicidal effect rating, ECHORC [1, 9]: 4.7
- herbicidal effect rating, ECHORC [1, 10]: 7.0
- herbicidal effect rating, ECHORC [1, 11]: 9.0
- herbicidal effect rating, CYPIR [2, 7]: 0.0
- herbicidal effect rating, CYPIR [2, 8]: 2.0
- herbicidal effect rating, CYPIR [2, 9]: 6.0
- herbicidal effect rating, CYPIR [2, 10]: 8.0
- herbicidal effect rating, CYPIR [2, 11]: 9.0
- herbicidal effect rating, CYPSE [3, 7]: 0.0
- herbicidal effect rating, CYPSE [3, 8]: 0.0
- herbicidal effect rating, CYPSE [3, 9]: 0.0
- herbicidal effect rating, CYPSE [3, 10]: 0.0
- herbicidal effect rating, CYPSE [3, 11]: 2.0
- herbicidal effect rating, MOOVA [4, 7]: 8.0
- herbicidal effect rating, MOOVA [4, 8]: 9.0
- herbicidal effect rating, MOOVA [4, 9]: 9.0
- herbicidal effect rating, MOOVA [4, 10]: 9.0
- herbicidal effect rating, MOOVA [4, 11]: 9.0
- herbicidal effect rating, SAGPY [5, 7]: 0.0
- herbicidal effect rating, SAGPY [5, 8]: 0.0
- herbicidal effect rating, SAGPY [5, 9]: 1.0
- herbicidal effect rating, SAGPY [5, 10]: 4.0
- herbicidal effect rating, SAGPY [5, 11]: 9.0
- herbicidal effect rating ORYSAT [6, 7]: 0.0
- herbicidal effect rating ORYSAT [6, 8]: 1.0
- herbicidal effect rating ORYSAT [6, 9]: 1.0
- herbicidal effect rating ORYSAT [6, 10]: 1.0
- herbicidal effect rating ORYSAT [6, 11]: 5.0
